In patent US7378535B2, “Production of furanones” (Unisearch Limited, A.C.N., priority 1998, dated 2008):

## CC(O)C1=CC(=C(Br)Br)OC1=O (stereo not shown) [Example 7, 5-(Dibromomethylene)-3-(1-hydroxyethyl)-2(5H)-furanone]
  melting point: 100 °C
